Test results from patent US7964604B2, “Bifeprunox mesylate maintenance dose compositions and methods for using the same” (Solvay Pharmaceuticals B.V., priority 2005, dated 2011).
Where two headings read alike, the source gives them in different places.

Columns and labels:
CYP3A4 [1] = biological target: T1, CYP3A4 (Homo sapiens, UniProt P08684); test: In vitro metabolism; assay type: in vitro ADME; settings: in vitro data
[2] = Tablet dissolution test (paddle method); assay type: physicochemical; settings: McILvaine buffer pH 3.0
Procedure: Three different strengths of tablets (10 mg, 5 mg and 1 mg of bifeprunox mesylate) were prepared having the compositions shown in Table 10; the tablets were designated T1, T2 and T3, respectively.
Each of the tablets were placed in a dissolution test under the following conditions: Apparatus: paddle method; Stirring speed: 50 rpm; Amount of test dissolution medium: 900 ml; Temperature of dissolution medium: 37° C.±0.5° C.
Six different dissolution media were used as follows:
Media 1: Dissolve 2.0 g of sodium chloride dissolved in 7.0 ml of hydrochloric acid, q.s. with water to make 1000 ml (pH 1.2);
Media 2: McILvaine buffer solution (pH 3.0), pH adjusted with 0.05 mol/L of sodium hydrogen phosphate and 0.025 mol/L of citric acid;
Media 3: McILvaine buffer solution (pH 4.0);
Media 4: McILvaine buffer solution (pH 5.0);
Media 6: To 250 ml of 0.2 mol/L potassium dihydrogenphosphate TS add 118 ml of 0.2 mol/L sodium hydroxide TS and water to make 1000 ml.
Dissolution testing was performed in triplicate.

CYP2C9 [3] = biological target: T2, CYP2C9 (Homo sapiens, UniProt P11712); test: In vitro metabolism; assay type: in vitro ADME; settings: in vitro data
T2 sequence (P11712 whole entry): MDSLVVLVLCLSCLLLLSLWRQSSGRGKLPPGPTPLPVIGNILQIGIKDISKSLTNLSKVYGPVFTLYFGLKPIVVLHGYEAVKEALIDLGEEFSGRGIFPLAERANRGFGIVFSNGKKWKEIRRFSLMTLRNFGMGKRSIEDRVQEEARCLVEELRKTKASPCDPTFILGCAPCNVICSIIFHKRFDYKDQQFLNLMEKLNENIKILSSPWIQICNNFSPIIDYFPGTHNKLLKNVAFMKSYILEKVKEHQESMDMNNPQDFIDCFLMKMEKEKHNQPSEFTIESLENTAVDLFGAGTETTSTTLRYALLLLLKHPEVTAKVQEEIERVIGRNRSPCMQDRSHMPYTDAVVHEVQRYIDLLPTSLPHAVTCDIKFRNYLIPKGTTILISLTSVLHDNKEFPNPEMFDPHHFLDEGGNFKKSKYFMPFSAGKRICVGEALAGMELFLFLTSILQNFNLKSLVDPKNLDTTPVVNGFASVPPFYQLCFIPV

[4] = Drug-drug interactions (co-administration); assay type: in vivo, human
Description: Co-administration with […] paroxetine had no effect on bifeprunox PK. Bifeprunox exposure was reduced by approximately 50% after co-administration with the CYP3A4 inducer carbamazepine. […] Bifeprunox had no effect on the PK and pharmacodynamics of warfarin and the PK of lithium. […] Administration of famotidine, an H2 antagonist that inhibits gastric acid secretion, had no effect on bifeprunox PK.

[5] = Maximum tolerated single dose; assay type: in vivo, human; settings: healthy subjects and patients with schizophrenia
Procedure: (§1) In healthy subjects and patients with schizophrenia, the maximum tolerated single dose of bifeprunox was 0.5 mg. Tolerance to dose-limiting side effects (nausea, dizziness, vomiting, and orthostatic hypotension) developed as the dosage was titrated upwards. All PK assessments at doses higher than 0.5 mg were performed following multiple dosages under steady-state conditions. Doses of 5-40 mg were administered in efficacy studies. PK parameters describing absorption, distribution, metabolism, and elimination were calculated based on non-compartmental analysis. PK parameter values from each study were combined to create a pooled dataset. The potential influence of gender, body weight, and race on bifeprunox PK was analyzed.

[6] = Administration with a high-fat meal; assay type: in vivo, human; settings: 40 mg dose
Procedure: Bifeprunox was rapidly absorbed after oral administration. The median time to peak plasma concentration (Tmax) was approximately 2 hours. Multiple patients were dosed proportional in the 20 to 40 mg/day range (mean AUC0-24 for 20 mg: 381.5 ng·hr/mL and mean AUC0-24 for 40 mg: 825.1 ng·hr/mL). […] Absolute oral bioavailability of the bifeprunox tablets used in the pooled studies has not been determined.

plasma proteins = test: Plasma protein binding; assay type: in vitro ADME; settings: human, healthy patients as well as those with renal or hepatic impairment, read-out: bound to plasma proteins
Description: Apparent volume of distribution (Vz/F) was 1300 L. Based upon the volume of distribution, bifeprunox was extensively distributed into the peripheral tissues. […] Bifeprunox was more than 99% bound to plasma proteins in healthy patients as well as those with renal or hepatic impairment.

CYP3A4 [7] = biological target: T1, CYP3A4; test: Metabolism based on in vivo data; parameters: from tissue; host or cells: endogenous enzyme of clinical subjects (in vivo)
Procedure: (§2) Based on those pharmacokinetics, bifeprunox (an investigational partial dopamine agonist antipsychotic compound) was rapidly absorbed after oral administration. Multiple-dose PK of bifeprunox were dose proportional over the range of 20 to 40 mg doses. Bifeprunox was extensively distributed into peripheral tissues and highly protein bound. It was primarily eliminated in the feces. […] Bifeprunox has a low drug interaction potential with other drugs used in these studies (e.g. lithium, warfarin and famotidine).

CYP2C9 [8] = biological target: T2, CYP2C9; test: Metabolism based on in vivo data; parameters: from tissue; host or cells: endogenous enzyme of clinical subjects (in vivo)
Procedure: as §2

[9] = PK in healthy subjects with reduced CYP2C enzyme activity; assay type: in vivo, human
[10] = Population PK assessment in patients with schizophrenia; assay type: in vivo, human; settings: schizophrenia patients (SP)
Description: (§3) The pharmacokinetics of bifeprunox in healthy subjects were investigated based on a pooled analysis of pharmacokinetic (PK) parameters from 21 clinical pharmacology studies. The pooled analysis included PK profiles obtained following single and multiple doses administered to 132 and 399 subjects, respectively, and explored the potential effects of age, gender, body weight and race. In addition, PK in patients (PTS) with schizophrenia were investigated using a population PK approach based on samples from 376 subjects in phase II studies and 434 subjects in phase III studies.
A population-based PK assessment using compartmental methods was conducted in 810 patients with schizophrenia enrolled in several clinical studies.

[11] = Pooled analysis of pharmacokinetic parameters in healthy subjects; assay type: in vivo, human
Description: as §3, §1

In vitro metabolism = assay type: in vitro ADME; settings: in vitro data, CYP2A4
[12] = Stability of polymorphic forms; assay type: physicochemical; settings: for thermodynamic stability of the crystalline form: monomethanesulfonate
Description: During further investigations it appeared that polymorphs γ and δ are metastable, and therefore may have drawbacks when used in a pharmaceutical formulation. The unpredictable formation of one of the two polymorphs γ and δ or a mixture thereof is also undesirable. It would be desirable, therefore, to provide a stable crystalline form of 7-[4-([1,1′-biphenyl]-3-ylmethyl)-1-piperazinyl]-2(3H)-benzoxazolone monomethanesulfonate for pharmaceutical use which can be consistently produced.
Furthermore this crystalline form crystallizes in the form of large crystals which can be easily filtrated and have a high purity. Therefore this polymorph α is particularly suitable for the formulation of bifeprunox mesylate in a solid form, if desired after particle size reduction.

[13] = co-administration with carbamazepine
[14] = co-administration with fluconazole
[15] = co-administration with ketoconazole

T1 sequence (P08684 whole entry): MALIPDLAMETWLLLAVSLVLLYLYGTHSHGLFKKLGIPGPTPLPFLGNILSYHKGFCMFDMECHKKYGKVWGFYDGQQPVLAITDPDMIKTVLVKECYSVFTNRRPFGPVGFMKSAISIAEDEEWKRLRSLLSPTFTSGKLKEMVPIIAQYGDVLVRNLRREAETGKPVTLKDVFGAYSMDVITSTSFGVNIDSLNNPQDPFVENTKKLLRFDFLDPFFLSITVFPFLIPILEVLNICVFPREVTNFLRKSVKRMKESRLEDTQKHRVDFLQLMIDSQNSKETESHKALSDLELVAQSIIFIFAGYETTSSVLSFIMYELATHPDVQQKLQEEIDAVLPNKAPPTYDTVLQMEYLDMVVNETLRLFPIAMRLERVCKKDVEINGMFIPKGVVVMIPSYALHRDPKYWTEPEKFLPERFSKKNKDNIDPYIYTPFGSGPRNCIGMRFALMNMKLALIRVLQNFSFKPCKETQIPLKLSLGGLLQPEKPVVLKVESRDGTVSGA

Which results are given for O=c1[nH]c2cccc(N3CCN(Cc4cccc(-c5ccccc5)c4)CC3)c2o1 [bifeprunox, 7-[4-([1,1′-biphenyl]-3-ylmethyl)-1-piperazinyl]-2(3H)-benzoxazolone monomethanesulfonate]?
metabolism in the liver by enzyme (CYP3A4 [1]): primarily; dissolution behavior [2]: dissolves almost immediately; metabolism in the liver by enzyme (CYP2C9 [3]): primarily; effect on bifeprunox PK ([4]; administration of famotidine): no effect; prothrombin time profile following warfarin, presence versus absence of bifeprunox ([4]; bifeprunox 40 mg/day with warfarin): comparable; decrease of mean AUC0-24 [4, 13]: 54%; decrease of mean Cmax [4, 13]: 50%; reduction of bifeprunox exposure [4, 13]: approximately 50%; increase of mean bifeprunox AUC0-24 [4, 14]: 3.7 fold; increase of mean bifeprunox Cmax [4, 14]: 2.5 fold; increase of bifeprunox AUC0-24 [4, 15]: 63%; increase of bifeprunox Cmax [4, 15]: 44%; effect of bifeprunox on the PK of lithium ([4]; co-administration with lithium): no effect; effect on bifeprunox PK ([4]; co-administration with paroxetine): no effect; effect of bifeprunox on the PK and pharmacodynamics of warfarin ([4]; co-administration with warfarin): no effect; maximum tolerated single dose [5]: 0.5 mg; Cmax increase with high-fat meal [6]: 29%; Tmax delay with high-fat meal [6]: 1.5 h; fraction unbound (plasma proteins): < 0.01; metabolism by enzyme, based on in vivo data (CYP3A4 [7]): to a lesser extent; metabolism by enzyme, based on in vivo data (CYP2C9 [8]): primarily metabolized; AUC, fold higher than for extensive metabolizers ([9]; intermediate metabolizers): 3.7 fold; Cmax, fold higher than for extensive metabolizers ([9]; intermediate metabolizers (reduced CYP2C activity)): 3.1 fold; AUC, fold higher than for extensive metabolizers ([9]; slow metabolizers): 7.1 fold; Cmax, fold higher than for extensive metabolizers ([9]; slow metabolizers (reduced CYP2C activity)): 3.9 fold; half-life ([10]; human, in vivo, oral): 15 h; Vd/F ([10]; human, in vivo, oral, read-out: Vz/F): ~1100 L; Cl/F [10]: 57 L/h; Bioavailability (predicted) ([11]; based on hepatic blood flow and oral clearance): 54%; mean steady-state elimination half-life (t1/2) ([11]; following multiple dose administration): 14.4 hours and approximately 14 hours; Cl/F ([11]; healthy subjects (HS)): 62.2 L/h; blood plasma ratio ([11]; human, blood and plasma): 0.7 to 0.9; Vd/F ([11]; human, in vivo): ~1300 L; distribution of bifeprunox or its metabolites into red blood cells ([11]; human, in vivo): No extensive distribution; half-life ([11]; human, in vivo): 14 h; half-life ([11]; human, in vivo, multiple dose, 20 and 40 mg/day, mean ± SD, read-out: T1/2 (converted)): 14.4 ± 5.3 h; AUC(0-t) ([11]; human, plasma, oral, 20 mg, multiple dose, read-out: mean AUC0-24): 382 ng·h/mL; AUC(0-t) ([11]; human, plasma, oral, 40 mg, multiple dose, read-out: mean AUC0-24): 825 ng·h/mL; Vd/F ([11]; human, plasma, oral, healthy subjects, read-out: Apparent volume of distribution (Vz/F)): 1300 L; Cmax ([11]; human, plasma, oral, multiple dose, 20 and 40 mg/day, dose normalized to 20 mg, mean ± SD): 62.1 ± 38.2 ng/mL; AUC(0-t) ([11]; human, plasma, oral, multiple dose, 20 and 40 mg/day, dose normalized to 20 mg, mean ± SD, read-out: AUC0-24): 402 ± 292 ng·h/mL; Vd/F ([11]; human, plasma, oral, multiple dose, 20 and 40 mg/day, mean ± SD, read-out: Vzbw/F (apparent volume of distribution corrected by body weight)): 17.3 ± 9.4 L/kg; Tmax ([11]; human, plasma, oral, multiple dose, 20 and 40 mg/day, median (range), read-out: Tmax): 2 h; CL/F ([11]; human, plasma, po, multiple dose, 20 and 40 mg/day, mean ± SD, read-out: CLbw/F (weight normalized oral clearance) (converted)): 15 mL/min/kg; Tmax ([11]; human, plasma, oral administration, read-out: median time to peak plasma concentration (Tmax)): ~2 h; age-, gender-, body weight-, or race-related effects on PK ([11]; pooled analysis): no clinically relevant; Steady-state mean oral clearance (CL/F) ([11]; steady state): 62.2 L/h; metabolism in the liver by enzyme (In vitro metabolism): minor contribution

Which “thermodynamic stability of the crystalline form” value (from here on “thermodynamic stability”) [12] does the source give for O=c1[nH]c2cccc(N3CCN(Cc4cccc(-c5ccccc5)c4)CC3)c2o1 [polymorph γ, 7-[4-([1,1′-biphenyl]-3-ylmethyl)-1-piperazinyl]-2(3H)-benzoxazolone monomethanesulfonate] here?
Its value is “metastable”.

Which “thermodynamic stability” value [12] does the source give for O=c1[nH]c2cccc(N3CCN(Cc4cccc(-c5ccccc5)c4)CC3)c2o1 [polymorph δ, 7-[4-([1,1′-biphenyl]-3-ylmethyl)-1-piperazinyl]-2(3H)-benzoxazolone monomethanesulfonate] here?
The value was “metastable”.

Which “conversion of the polymorphic form” value ([12]; high atmospheric humidity or higher temperature) does the source give for O=c1[nH]c2cccc(N3CCN(Cc4cccc(-c5ccccc5)c4)CC3)c2o1 [polymorph α, 7-[4-([1,1′-biphenyl]-3-ylmethyl)-1-piperazinyl]-2(3H)-benzoxazolone monomethanesulfonate] here?
The value was “does not undergo conversion”.

And the “thermodynamic stability” value [12]?
The value was “more thermodynamically stable”.
